Literature values as cited in patent US9012464B2, “Salts and polymorphic forms of Afatinib” (Ratiopharm GmbH, priority 2010, dated 2015).

Conditions: acid compound used for forming afatinib salts

SMILES: O=S(=O)(O)c1ccccc1 [Benzenesulphonic acid]
- pKa1: 0.7
